Assay results: patent US20260240851A1, “Treatment of Parkinson's Disease in a Patient Using a Glucocerebrosidase Activator” (BIAL - R&D Investments, S.A., priority 2023, published 2026)
Read-outs that look alike come from different tables or passages of the source.

How the values were obtained:
[1] = LTI-291-001: CNS (NeuroCart) assessments; format: in vivo, human; conditions: single doses 3-90 mg, healthy subjects
Method: The pharmacodynamic evaluations consisted of a battery of CNS (NeuroCart®) assessments, including Saccadic Eye Movements, Smooth Pursuit Eye Movements, Adaptive Tracking, Body Sway, Visual Verbal Learning Test, and EEG. GluCer was measured in plasma and PBMCs as a biomarker of pharmacological effect.

[2] = LTI-291-001: safety and tolerability; format: in vivo, human
Method: This study was a first-in-human Phase 1, randomized, double-blind, placebo-controlled, single-ascending dose study to evaluate the safety and tolerability, PK, and PD of escalating single oral doses of Compound A (3, 10, 30, and 90 mg) in 4 cohorts of healthy subjects. A total of 32 subjects received a single oral dose of Compound A (8 per dose group) and 8 subjects received placebo. The effect of food on the PK of Compound A was evaluated by administering a second single oral dose of 10 mg Compound A to the subjects in Cohort 2 on a separate occasion, after subjects had completed a high-fat breakfast. Blood samples for Compound A PK were collected up to 48 hours after each dose.

[3] = LTI-291-002: safety and tolerability; format: in vivo, human
Method: This study was a phase 1, randomized, double-blind, placebo-controlled, multiple ascending dose study of Compound A in 4 cohorts of middle-aged to elderly healthy participants (aged 52 to 75 years). […] A total of 39 healthy subjects were enrolled in 4 sequential cohorts. Subjects in each cohort received once-daily oral doses of 3 mg (n=7), 10 mg (n=8), 30 mg (n=8), or 60 mg (n=8) Compound A or placebo (n=8) for 14 days. Pharmacokinetic parameters were determined for each dose at Day 1, Day 7, and Day 14. Cerebrospinal fluid samples for Compound A concentrations were measured before the first dose and 4 hours after the last dose for each dose level. GluCer, glucosyl sphingosine (GluSph), and lactosyl-ceramide (LacCer) were measured in plasma, PBMCs, and CSF as biomarkers of pharmacological effects. Pharmacodynamic measurements consisted of battery of CNS (NeuroCart®) assessments including Saccadic Eye Movements, Smooth Pursuit Eye Movements, Adaptive Tracking, Body Sway, Visual Verbal Learning Test, and pharmaco-EEG.

[4] = LTI-291-004 imaging study in GBA-PD: plasma concentrations; format: in vivo, human; conditions: Day 7, Day 14, Day 28, GBA-PD
Method: This study was a Phase 1B, randomized, double-blind, placebo-controlled, multiple oral dose study of Compound A in 14 subjects (aged 51 to 81 years) with GBA-PD. The objectives of this study were to investigate the safety, tolerability, and PK of multiple once-daily oral administration of Compound A and to explore the accompanying pharmacodynamic changes. Subjects received once-daily oral doses of 10 mg (n=6) or 60 mg (2×30 mg capsules) (n=6) Compound A or placebo (n=2) for 28 consecutive days. PK samples were measured once on Day 7 and Day 14 and 4 times after the last dose on Day 28. Plasma concentrations were summarized at each time point, and no PK parameters were estimated. The PD evaluations included fMRI measures; FDG-PET to determine the metabolic rate of glucose in specific regions of the brain; and functional outcome measures (MDS-UPDRS Part III and the MMSE). GluCer, GluSph, and LacCer and other sphingolipids were measured in PBMCs and plasma as biomarkers of pharmacological effect.

[5] = BIA 28-6156-106: safety and tolerability; format: in vivo, human
Method: This was a Phase 1, single-dose, mass balance recovery study of ^14C-Compound A in 1 cohort of healthy male subjects, aged 30 to 65 years. A total of 6 subjects received a single oral dose of 60 mg Compound A, containing not more than 3.7 MBq ^14C, under fasted conditions. Objectives included determining the routes and rates of elimination of ^14C-Compound A, identifying the structure of metabolites that account for more than 10% of circulating total radioactivity in plasma and total radioactive dose in urine and feces, exploring the PK of Compound A, evaluating the extent of distribution of TR into blood cells, and gathering additional safety and tolerability information for Compound A.

[6] = BIA 28-6156-110 DDI, rosuvastatin portion; format: in vivo, human; conditions: after 6 days of dosing with 60 mg, rosuvastatin portion
Method: In Cohort 1, a single oral dose of 10 mg rosuvastatin was administered alone on Day 1. No drug was administered on Day 2. From Day 3 to Day 8, a single daily dose of 60 mg Compound A was administered.

[7] = BIA 28-6156-110 DDI, metformin portion; format: in vivo, human; conditions: after 6 days of dosing with 60 mg, metformin portion
Method: In Cohort 2, a single oral dose 500 mg metformin was administered alone on Day 1. From Day 2 to Day 7, a single daily dose of 60 mg Compound A was administered.

[8] = after 6 days of dosing with 60 mg, Sinemet portion
Method: (§1) This was a Phase 1, non-randomized, open-label, 2-cohort, cross-over, DDI study in healthy male and female subjects.
In Cohort 1, a single oral dose 100 mg/25 mg levodopa-carbidopa (Sinemet®) IR was administered alone on Day 1.

[9] = after 6 days of dosing with 60 mg, Madopar portion
Method: as §1
In Cohort 2, a single oral dose 100 mg/25 mg levodopa-benserazide (Madopar®) IR was administered alone on Day 1.

[10] = J. M den Heijer, 2021; cited from earlier work
[11] = BIA 28-6156-105: continuous cardiac monitoring, concentration-QTc analysis

CCCCCO[C@H]1CC[C@H](NC(=O)c2cnn3c(C)cc(C)nc23)CC1 [Compound A, 5,7-dimethyl-N-((1S*,4S)-4-(pentyloxy)cyclohexyl)pyrazolo[1,5-a]pyrimidine-3-carboxamide]
effects on CNS (Neurocart) tests [1]: no dose-dependent effects
AE fatigue, subjects ([2]; all Compound A groups): 7.5%
AE headache, subjects ([2]; all Compound A groups): 12.5%
AE somnolence, subjects ([2]; all Compound A groups): 10%
at least one AE in the GI system organ class, subjects ([2]; all Compound A groups): 7.5%
vital signs, laboratory safety assessments, ECG parameters ([2]; single doses): no clinically significant safety observations
deaths, SAEs, severe AEs, discontinuations due to AEs ([2]; single doses 3-90 mg): No deaths, other SAEs, severe AEs, or discontinuations due to AEs
Myalgia, subjects ([3]; 3 mg dose group): 14%
Somnolence, subjects ([3]; 3 mg dose group): 14%
Myalgia, subjects ([3]; 10 mg dose group): 0%
Somnolence, subjects ([3]; 10 mg dose group): 0%
Myalgia, subjects ([3]; 30 mg dose group): 13%
Somnolence, subjects ([3]; 30 mg dose group): 0%
Myalgia, subjects ([3]; 60 mg dose group): 38%
Somnolence, subjects ([3]; 60 mg dose group): 50%
creatine kinase abnormalities ([3]; 60 mg group): No clinically significant creatine kinase abnormalities
deaths, SAEs, severe AEs, discontinuations due to AEs ([3]; 3-60 mg daily for 14 days): No deaths, other SAEs, severe AEs, or discontinuations due to AEs
vital signs, laboratory safety assessments, ECG parameters ([3]; 14 days): no clinically significant safety observations
AE back pain, subjects ([3]; all Compound A groups): 13%
AE headache, subjects ([3]; all Compound A groups): 39%
AE myalgia, subjects ([3]; all Compound A groups): 16%
AE somnolence, subjects ([3]; all Compound A groups): 16%
Mean plasma concentrations, 60 mg vs 10 mg [4]: higher after the 60 mg dose than after the 10 mg dose
vital signs, laboratory safety assessments, ECG parameters ([5]; in vivo): no clinically significant safety observations
relatedness of AEs ([5]; investigator assessment): unrelated to the IMP
deaths, SAEs, severe AEs, discontinuations due to AEs ([5]; single 60 mg dose): No deaths, other SAEs, severe AEs, or discontinuations due to AEs
subjects reporting mild headaches ([5]; single 60 mg dose): 33.3%
subjects reporting moderate tinea cruris ([5]; single 60 mg dose): 16.7%
subjects reporting AEs ([5]; single 60 mg dose, 6 subjects): 50.0%
steady state concentrations of Compound A [6]: appeared not to have been reached
steady state concentrations of Compound A [7]: appeared not to have been reached
steady state concentrations of Compound A [8]: appeared not to have been reached
steady state concentrations of Compound A [9]: appeared not to have been reached
safety and tolerability in healthy humans [10]: generally well tolerated
effects on cardiac ECG parameters ([11]; doses of 60 and 150 mg): no clinically relevant effects
effect on ΔΔQTcF (concentration-QTc analysis) ([11]; plasma concentrations of Compound A up to approximately 7150 ng/mL): ≤ 10 ms
